Reference: patent US20220062240A1, “METHODS OF TREATING CANCER USING A CLK INHIBITOR” (BioSplice Therapeutics, Inc., priority 2018, published 2022)
Where two headings read alike, the source gives them in different places.

Columns and labels:
[1] = target: T1, CLK2 (Homo sapiens, UniProt P49760); test: CLK2 kinase activity assay (Z-lyte, Ser/Thr 6 peptide); format: biochemical; conditions: recombinant CLK2 kinase, ATP 60 μM; read-out: EC50
T1 construct: purchased Thermo Fisher (Life Technologies), Z'-LYTE Kinase Assay Kits
T1 sequence (P49760 whole entry): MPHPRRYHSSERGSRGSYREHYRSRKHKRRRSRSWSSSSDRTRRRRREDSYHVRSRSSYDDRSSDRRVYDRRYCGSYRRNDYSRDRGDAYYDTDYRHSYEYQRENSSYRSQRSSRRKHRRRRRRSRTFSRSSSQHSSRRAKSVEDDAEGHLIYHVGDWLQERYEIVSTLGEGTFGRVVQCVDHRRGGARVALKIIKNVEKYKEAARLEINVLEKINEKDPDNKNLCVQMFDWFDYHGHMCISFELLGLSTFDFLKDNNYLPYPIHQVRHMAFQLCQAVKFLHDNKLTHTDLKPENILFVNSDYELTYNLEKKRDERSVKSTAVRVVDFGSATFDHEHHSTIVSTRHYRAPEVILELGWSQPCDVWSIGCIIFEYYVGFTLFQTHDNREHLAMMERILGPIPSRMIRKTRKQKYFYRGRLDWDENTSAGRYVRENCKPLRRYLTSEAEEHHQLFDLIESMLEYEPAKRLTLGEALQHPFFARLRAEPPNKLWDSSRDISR
Procedure: All reactions were performed in duplicate.

[2] = system: BT-549; test: CellTiter-Glo Viability Assay, breast cancer; format: cell-based; conditions: Homo sapiens, 96 h; BT-549, breast cancer, four days; read-out: EC50
[3] = system: CAMA1; test: CellTiter-Glo Viability Assay, breast cancer; format: cell-based; conditions: Homo sapiens, CAMA-1, 96 h; CAMA1, breast cancer, four days; read-out: EC50
[4] = system: DU4475; test: CellTiter-Glo Viability Assay, breast cancer; format: cell-based; conditions: Homo sapiens, DU-4475, 96 h; DU4475, breast cancer, four days; read-out: EC50
[5] = system: HCC1599; test: CellTiter-Glo Viability Assay, breast cancer; format: cell-based; conditions: Homo sapiens, 96 h; HCC1599, breast cancer, four days; read-out: EC50
[6] = system: MCF7; test: CellTiter-Glo Viability Assay, breast cancer; format: cell-based; conditions: Homo sapiens, 96 h; MCF7, breast cancer, four days; read-out: EC50
[7] = system: MDA-MB-231-Luc; test: CellTiter-Glo Viability Assay, breast cancer; format: cell-based; conditions: Homo sapiens, 96 h; MDA-MB-231-Luc, breast cancer, four days; read-out: EC50
[8] = system: T47D; test: CellTiter-Glo Viability Assay, breast cancer; format: cell-based; conditions: Homo sapiens, 96 h, breast cancer, four days, read-out: EC50
[9] = system: ZR-75-1; test: CellTiter-Glo Viability Assay, breast cancer; format: cell-based; conditions: Homo sapiens, 96 h; ZR-75-1, breast cancer, four days; read-out: EC50
[10] = system: all 50 cell lines; test: CellTiter-Glo Viability Assay, average across all cell lines; format: cell-based; conditions: Homo sapiens; across all 50 cell lines; read-out: average EC50 for inhibition of cancer cell proliferation
Procedure, shortened: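 4-day proliferation, 37° C/5% CO2; 300-3,000 cells/well; compound in duplicate vs DMSO controls. Panel: breast, colorectal, heme/lymphoid, liver, lung, ovarian, pancreatic, prostate lines. Read-out: CellTiter-Glo ATP luminescence, EC50 from dose-response.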

[11] = system: colorectal cancer (6 cell lines); test: CellTiter-Glo Viability Assay, colorectal cancer; format: cell-based; conditions: Homo sapiens, inhibition of cancer cell proliferation
[12] = system: haematopoietic & lymphoid tumors (13 cell lines); test: CellTiter-Glo Viability Assay, haematopoietic & lymphoid tumors; format: cell-based; conditions: Homo sapiens, inhibition of cancer cell proliferation
[13] = system: liver cancer (3 cell lines); test: CellTiter-Glo Viability Assay, liver cancer; format: cell-based; conditions: Homo sapiens, inhibition of cancer cell proliferation
[14] = system: lung cancer (4 cell lines); test: CellTiter-Glo Viability Assay, lung cancer; format: cell-based; conditions: Homo sapiens, inhibition of cancer cell proliferation
[15] = system: ovarian cancer (4 cell lines); test: CellTiter-Glo Viability Assay, ovarian cancer; format: cell-based; conditions: Homo sapiens, inhibition of cancer cell proliferation
[16] = system: pancreatic cancer (8 cell lines); test: CellTiter-Glo Viability Assay, pancreatic cancer; format: cell-based; conditions: Homo sapiens, inhibition of cancer cell proliferation
[17] = system: prostate cancer (5 cell lines); test: CellTiter-Glo Viability Assay, prostate cancer; format: cell-based; conditions: Homo sapiens
[18] = target: CLK3 (Homo sapiens, UniProt P49761); test: CLK3 kinase activity assay (Z-lyte, Ser/Thr 18 peptide)
CLK3, sequence (P49761 whole entry): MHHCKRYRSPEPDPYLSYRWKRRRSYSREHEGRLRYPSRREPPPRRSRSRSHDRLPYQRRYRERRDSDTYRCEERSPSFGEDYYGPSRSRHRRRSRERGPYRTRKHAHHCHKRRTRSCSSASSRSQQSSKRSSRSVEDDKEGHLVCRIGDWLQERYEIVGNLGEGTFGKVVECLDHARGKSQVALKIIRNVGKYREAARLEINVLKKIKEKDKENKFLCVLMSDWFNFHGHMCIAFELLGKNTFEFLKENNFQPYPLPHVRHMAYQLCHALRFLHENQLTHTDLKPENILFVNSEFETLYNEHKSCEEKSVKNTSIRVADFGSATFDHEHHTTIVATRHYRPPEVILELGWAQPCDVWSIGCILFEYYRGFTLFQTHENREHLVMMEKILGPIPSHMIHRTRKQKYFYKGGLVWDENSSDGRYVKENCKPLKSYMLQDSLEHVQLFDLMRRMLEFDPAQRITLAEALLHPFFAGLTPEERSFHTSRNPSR

[19] = HCT-116, HCT116 cell line, read-out: Colorectal cancer, EC50 (μM) HCT116
[20] = HT-29, HT29 cell line, read-out: Colorectal cancer, EC50 (μM) HT29
[21] = SW-620, SW620 cell line, read-out: Colorectal cancer, EC50 (μM) SW620
[22] = DLD-1 cell line, read-out: Colorectal cancer, EC50 (μM) DLD-1
[23] = SW48 cell line, read-out: Colorectal cancer, EC50 (μM) SW48
[24] = SW480 cell line, read-out: Colorectal cancer, EC50 (μM) SW480
[25] = DND41, DND-41 cell line, read-out: Haematopoietic & Lymphoid tumors, EC50 (μM) DND-41
[26] = MV4-11, MV-4-11 cell line, read-out: Haematopoietic & Lymphoid tumors, EC50 (μM) MV-4-11
[27] = Rec1, REC-1 cell line, read-out: Haematopoietic & Lymphoid tumors, EC50 (μM) REC-1
[28] = SU-DHL-4, SUDHL4 cell line, read-out: Haematopoietic & Lymphoid tumors, EC50 (μM) SUDHL4
[29] = HL-60 cell line, read-out: Haematopoietic & Lymphoid tumors, EC50 (μM) HL-60
[30] = JM1 cell line, read-out: Haematopoietic & Lymphoid tumors, EC50 (μM) JM1
[31] = JURKAT, Clone E6-1 cell line, read-out: Haematopoietic & Lymphoid tumors, EC50 (μM) JURKAT, Clone E6-1
[32] = JeKo-1 cell line, read-out: Haematopoietic & Lymphoid tumors, EC50 (μM) JeKo-1
[33] = KASUMI-1 cell line, read-out: Haematopoietic & Lymphoid tumors, EC50 (μM) KASUMI-1
[34] = Loucy cell line, read-out: Haematopoietic & Lymphoid tumors, EC50 (μM) Loucy
[35] = MOLT-4 cell line, read-out: Haematopoietic & Lymphoid tumors, EC50 (μM) MOLT-4
[36] = TF-1 cell line, read-out: Haematopoietic & Lymphoid tumors, EC50 (μM) TF-1
[37] = TOLEDO cell line, read-out: Haematopoietic & Lymphoid tumors, EC50 (μM) TOLEDO
[38] = SNU-398, SNU398 cell line, read-out: Liver cancer, EC50 SNU398
[39] = HEPG2 cell line, read-out: Liver cancer, EC50 HEPG2
[40] = PLC/PRF/5 cell line, read-out: Liver cancer, EC50 PLC/PRF/5
[41] = A-427, A427 cell line, read-out: Lung cancer, EC50 (μM) A427
[42] = HCC78, HCC-78 cell line, read-out: Lung cancer, EC50 (μM) HCC-78
[43] = NCI-H460 cell line, read-out: Lung cancer, EC50 (μM) NCI-H460
[44] = NCI-H522 cell line, read-out: Lung cancer, EC50 (μM) NCI-H522
[45] = PA-1, PA1 cell line, read-out: Ovarian cancer, EC50 (μM) PA1
[46] = TOV112D, TOV-112D cell line, read-out: Ovarian cancer, EC50 (μM) TOV-112D
[47] = OV-90 cell line, read-out: Ovarian cancer, EC50 (μM) OV-90
[48] = OVCAR-3 cell line, read-out: Ovarian cancer, EC50 (μM) OVCAR-3
[49] = BXPC-3, BxPC3 cell line, read-out: Pancreatic cancer, EC50 BxPC3
[50] = CAPAN-1, Capan1 cell line, read-out: Pancreatic cancer, EC50 Capan1
[51] = Capan-2, Capan2 cell line, read-out: Pancreatic cancer, EC50 Capan2
[52] = MIA PaCa-2 cell line, read-out: Pancreatic cancer, EC50 MIA PaCa-2
[53] = PANC 05.04 cell line, read-out: Pancreatic cancer, EC50 PANC 05.04
[54] = PANC-1 cell line, read-out: Pancreatic cancer, EC50 PANC-1
[55] = UPAFII cell line, read-out: Pancreatic cancer, EC50 UPAFII
[56] = DU-145, read-out: Prostate cancer EC50 Du-145
[57] = PC-3, PC3 cell line, inhibition of cancer cell proliferation, read-out: Prostate cancer EC50 PC3
[58] = 22Rv1 cell line, inhibition of cancer cell proliferation, read-out: Prostate cancer EC50 22Rv1
[59] = LNCap clone FGC cell line, inhibition of cancer cell proliferation, read-out: Prostate cancer EC50 LNCap clone FGC
[60] = VCaP (Sigma) cell line, inhibition of cancer cell proliferation, read-out: Prostate cancer EC50 VCaP (Sigma)

Structure (SMILES): Cc1n[nH]c2cc(F)c(-c3cncc(CN4CCNCC4)c3)cc12 [Compound 63]
- EC50 [1]: 0.012 µM
- EC50 [2]: 4.74 µM
- EC50 [3]: 5.21 µM
- EC50 [4]: 3.87 µM
- EC50 [5]: 2.33 µM
- EC50 [6]: > 10 µM
- EC50 [7]: 6.47 µM
- EC50 [8]: 8.47 µM
- EC50 [9]: 6.81 µM
- EC50 [10]: 5.05 µM
- EC50 [11, 19]: 2.93 µM
- EC50 [11, 20]: 6.16 µM
- EC50 [11, 21]: 1.82 µM
- EC50 [11, 22]: 5.01 µM
- EC50 [11, 23]: 1.49 µM
- EC50 [11, 24]: 3.24 µM
- EC50 [12, 25]: 7.09 µM
- EC50 [12, 26]: 3.34 µM
- EC50 [12, 27]: 3.52 µM
- EC50 [12, 28]: 3.46 µM
- EC50 [12, 29]: 8.7 µM
- EC50 [12, 30]: 1.69 µM
- EC50 [12, 31]: > 10 µM
- EC50 [12, 32]: 1.49 µM
- EC50 [12, 33]: 3.19 µM
- EC50 [12, 34]: 3.72 µM
- EC50 [12, 35]: 7.07 µM
- EC50 [12, 36]: 6 µM
- EC50 [12, 37]: 2.21 µM
- EC50 [13, 38]: 1.37 µM
- EC50 [13, 39]: 3.44 µM
- EC50 [13, 40]: 9.52 µM
- EC50 [14, 41]: 4.18 µM
- EC50 [14, 42]: 8.18 µM
- EC50 [14, 43]: 7.41 µM
- EC50 [14, 44]: 3.3 µM
- EC50 [15, 45]: 3.04 µM
- EC50 [15, 46]: 3.63 µM
- EC50 [15, 47]: 7.97 µM
- EC50 [15, 48]: 2.62 µM
- EC50 [16, 49]: 9.16 µM
- EC50 [16, 50]: 4.84 µM
- EC50 [16, 51]: 8.87 µM
- EC50 [16, 52]: 1.59 µM
- EC50 [16, 53]: 5.51 µM
- EC50 [16, 54]: 5.64 µM
- EC50 [16, 55]: 3.82 µM
- EC50 [17, 56]: 6.49 µM
- EC50 [17, 57]: 4.42 µM
- EC50 [17, 58]: 3.98 µM
- EC50 [17, 59]: 6.85 µM
- EC50 [17, 60]: 6.66 µM
- EC50 [18]: 0.343 µM

Structure (SMILES): CN1CCC(C(=O)Nc2c[nH]nc2-c2nc3c(-c4ccc(F)s4)cccc3[nH]2)CC1 [Compound 90]
- EC50 [1]: 0.0112 µM
- EC50 [2]: 0.116 µM
- EC50 [3]: 0.433 µM
- EC50 [4]: 0.095 µM
- EC50 [5]: 0.125 µM
- EC50 [6]: 0.36 µM
- EC50 [7]: 0.202 µM
- EC50 [8]: 0.281 µM
- EC50 [9]: 0.216 µM
- EC50 [10]: 0.142 µM
- EC50 [11, 19]: 0.06 µM
- EC50 [11, 20]: 0.171 µM
- EC50 [11, 21]: 0.047 µM
- EC50 [11, 22]: 0.131 µM
- EC50 [11, 23]: 0.023 µM
- EC50 [11, 24]: 0.061 µM
- EC50 [12, 25]: 0.106 µM
- EC50 [12, 26]: 0.008 µM
- EC50 [12, 27]: 0.022 µM
- EC50 [12, 28]: 0.079 µM
- EC50 [12, 29]: 0.246 µM
- EC50 [12, 30]: 0.06 µM
- EC50 [12, 31]: 0.226 µM
- EC50 [12, 32]: 0.04 µM
- EC50 [12, 33]: 0.053 µM
- EC50 [12, 34]: 0.105 µM
- EC50 [12, 35]: 0.125 µM
- EC50 [12, 36]: 0.08 µM
- EC50 [12, 37]: 0.066 µM
- EC50 [13, 38]: 0.055 µM
- EC50 [13, 39]: 0.164 µM
- EC50 [13, 40]: 0.371 µM
- EC50 [14, 41]: 0.13 µM
- EC50 [14, 42]: 0.136 µM
- EC50 [14, 43]: 0.243 µM
- EC50 [14, 44]: 0.091 µM
- EC50 [15, 45]: 0.23 µM
- EC50 [15, 46]: 0.101 µM
- EC50 [15, 47]: 0.361 µM
- EC50 [15, 48]: 0.111 µM
- EC50 [16, 49]: 0.046 µM
- EC50 [16, 50]: 0.114 µM
- EC50 [16, 51]: 0.151 µM
- EC50 [16, 52]: 0.06 µM
- EC50 [16, 53]: 0.14 µM
- EC50 [16, 54]: 0.217 µM
- EC50 [16, 55]: 0.106 µM
- EC50 [17, 56]: 0.123 µM
- EC50 [17, 57]: 0.093 µM
- EC50 [17, 58]: 0.102 µM
- EC50 [17, 59]: 0.332 µM
- EC50 [17, 60]: 0.098 µM
- EC50 [18]: 0.0217 µM
